Results as given in US8637310B2, “Use of a rock inhibitor to sustain primary human keratinocytes in a proliferative state” (The United States of America, as represented by the …, priority 2008, dated 2014).

Assays:
[1] = system: Myc; experiment: Immunodetection of Myc; assay type: cell-based, human
Procedure: Proteins were extracted in 2% sodium dodecyl sulfate (SDS), 50 mM Tris-HCl (pH 6.8), 10% glycerol supplemented with inhibitors Complete and PhosphoSTOP (Roche, Indianapolis, Ind.). Protein samples were resolved on NuPage gels, electrotransferred to Immobilon-P membrane (Millipore, Billerica, Mass.), and probed with the relevant antibodies before detection by chemiluminescence. Monoclonal antibody against p53 (DO-1) was obtained from Santa Cruz Biotechnology (Santa Cruz, Calif.). Monoclonal antibody against α-tubulin (B-5-1-2) was obtained from Sigma-Aldrich. Polyclonal antibodies against Myc (N-262), p21 (C-19), and p16 (C-20) were obtained from Santa Cruz Biotechnology.

[2] = system: keratinocytes; experiment: Organotypic raft culture (differentiation, stratification); assay type: cell-based, human
Procedure: Organotypic cultures were generated as described previously with modifications. (Banerjee et al., Methods Mol. Med. 119: 187-202, 2005). Briefly, 1×10^5 keratinocytes were seeded onto a rat tail type 1 collagen dermal equivalent containing 1−2×10^6 J2 3T3 feeder cells. The rafts were lifted onto stainless steel grids and were fed by diffusion from below with raft medium [3:1 (v/v) DMEM-F-12 (Ham), 10% FBS, 0.4 μg/ml hydrocortisone, 0.1 nM cholera toxin, and 5 μg/ml transferring]. Raft cultures were allowed to stratify and differentiate for 11-17 days. The collagen-epithelial rafts were fixed in formalin for 4 hours, paraffin embedded, sectioned and stained with hematoxylin and eosin (H&E) or by immunofluorescence as described in Pei et al. (Methods Mol. Med. 119: 49-59, 2005). Monoclonal antibody against anti-keratin 14 (K14) (Ab-1) was from Thermo Fisher Scientific, Fremont, Calif. Goat polyclonal antiserum against Filaggrin (N-20) and rabbit polyclonal antiserum against involucrin (H-120) were from Santa Cruz Biotechnology.

[3] = system: CIN612 9E cells; experiment: Growth of CIN1-derived cell line CIN612 9E; assay type: cell-based, human; settings: 10 μM Y-27632; 44 days; FIG. 7
Procedure: (§1) The 9E and […] (20863 clone) cell lines were cultured in F-media on irradiated J2 feeder cells. For the Y-27632 experiments they were cultured in F-medium with or without 10 μM Y-27632 and continually passed for the times indicated.

[4] = system: airway epithelial cells; settings: Moore et al. 2004; cited from earlier work
[5] = system: HPV31; experiment: HPV DNA replication assay (Southern blot) in transfected primary keratinocytes, HPV31; assay type: cell-based, human papillomavirus; settings: 10 μM Y-27632; two and five days post-electroporation; FIG. 5
Procedure: Cloned viral genomes were cleaved with restriction enzymes to separate viral and vector sequences. The genomes were religated at a concentration of 5 μg/ml to favor intramolecular circularization. Prior to electroporation, J2 feeder cells were removed from the keratinocytes by versene treatment and the HFKs were collected by trypsinization. HFKs (1×10^6) were electroporated with 2 μg of re-circularized viral genomic DNA using the Amaxa Nucleofector II electroporator and the Human Keratinocyte Nucleofector Kit. The Amaxa program optimized for cell survival was used according to the manufacturer's specifications. Cells were removed from the cuvettes immediately following electroporation, and seeded onto 10 cm plates containing irradiated feeder cells and F-medium, in the presence or absence of 10 μM Y-27632, as indicated. At various times post-transfection, low molecular weight DNA was isolated by a modified Hirt extraction procedure (Ustav et al., EMBO J. 10:449-457, 1991). For Southern blot analysis, the isolated DNA was linearized with EcoRI or BamHI, depending on cloning site for each viral genome, and DpnI, to digest any unreplicated input DNA. DNA fragments were separated by agarose gel electrophoresis followed by Southern blot hybridization. […]

[6] = system: W12 cells (20863 clone); experiment: Growth of CIN1-derived cell line W12; assay type: cell-based, human; settings: 10 μM Y-27632; 44 days; FIG. 7
Procedure: as §1

Which Myc protein levels ([1]; immediately after culture with Y-27632, HFK, HCK, HVK, FIG. 12A) does the source give for `CC(N)[C@H]1CC[C@H](C(=O)Nc2ccncc2)CC1` (single isomer, unassigned; (+)) [Y-27632, (+)-trans-N-(4-Pyridyl)-4-(1-aminoethyl)-cyclohexanecarboxamide] here?
Its Myc protein levels is “induced transiently”.

What about the “level of Myc” value ([1]; very late passages (p107), FIG. 16) of the same compound?
The value was “equivalent to that of an HPV31-containing cell line”.

And the differentiation and stratification ([2]; 10 μM Y-27632 added to the organotypic raft culture medium)?
The differentiation and stratification was “no differentiation or stratification were observed”.

And the “formation of stratified epithelium” value ([2]; cells cultured in Y-27632 for 18 passages and late pass, raft media without Y-27632)?
The value was “could also produce a stratified epithelium in organotypic culture”.

And the “expression of keratin 14, involucrin and filaggrin” value ([2]; raft tissue from Y-27632-treated cells, immunofluorescence)?
Its value is “expressed these differentiation markers in the appropriate layer”.

And the growth rate [3]?
The growth rate was “no differences in growth rate were observed”.

What about the “effect on airway epithelial cells” value [4] of the same compound?
The value was “induces membrane ruffling, loss of actin stress fibers and apoptosis”.

What about the “efficiency of HPV replication” value [5] of the same compound?
The value was “greatly increased the efficiency of HPV replication up to five days”.

And the growth rate [6]?
The growth rate was “no differences in growth rate were observed”.
